Test: ATP-removal effect of ATPS and pyrophosphatase, luciferase readout
Type: biochemical
Details: 100 μM ATP, 40 min at room temperature
Description: The ATP-removal effect of the reagent in Example 1 was verified.
ATP sulfurylase was prepared in the following buffer: 50 mM Tris-HCl buffer (pH 7.4)+10 mM MgCl2+20 mM Na2MoO4, where the concentration of each component is the final concentration in the resultant solution.
Reagent for ADP detection: 50 mM Tris-HCl buffer (pH 7.4)+20 mM MgSO4+50 mM KCl+2 mM EDTA+2 mM EGTA+0.1 mM D-luciferin+0.1 mM PEP-K (phosphoenolpyruvate monopotassium salt)+50 μg/mL luciferase+20 U/mL a pyruvate kinase, where the concentration of each component is the final concentration in the resultant solution.
The bioluminescence detection instrument was an EnVision (Perkin Elmer).
Next, 25 μL of ATP ([…]) was added to each well of a 96-well white opaque assay plate, followed by the addition of 25 μL of pyrophosphatase (PPA: 10 U/mL) and ATP sulfurylase (ATPS) at concentrations of 2 μg/mL, 1 μg/mL, and 0.5 μg/mL.
After incubation at room temperature (22° C.-25° C.) for 40 minutes, 50 μL of the reagent for ADP detection was added and mixed uniformly, and the fluorescence values were read after incubation was performed at room temperature for 10 minutes.
After 1 μM ATP+0.1 mM D-luciferin+50 μg/mL luciferase+50 mM Tris-HCl buffer (pH 7.4)+20 mM MgSO4 were incubated at room temperature for 10 minutes, the fluorescence value read was 439,640.
After 0.1 μM ATP+0.1 mM D-luciferin+50 μg/mL luciferase+50 mM Tris-HCl buffer (pH 7.4)+20 mM MgSO4 were incubated at room temperature for 10 minutes, the fluorescence value read was 47,720.
The remaining ATP after the action of ATPS and PPA was determined by comparing with the fluorescence values under conditions of ATP at 1 μM and 0.1 μM (see Table 2). It can be seen that the remaining ATP of 100 μM ATP under the action of ATPS (1 μg/mL) and pyrophosphatase was about 0.006%.

Luminescence (RLU) (ATPS 0.5 μg/mL + PPA 10 U/mL): 3.44E+03 RLU
Remaining ATP (%) (ATPS 0.5 μg/mL + PPA 10 U/mL): 0.0072%
Luminescence (RLU) (ATPS 1 μg/mL + PPA 10 U/mL): 2.88E+03 RLU
Luminescence (RLU) (ATPS 2 μg/mL + PPA 10 U/mL): 2.24E+03 RLU
Remaining ATP (%) (ATPS 2 μg/mL + PPA 10 U/mL): 0.0047%
Substance: ATPS
